A word on the IC50: it is the point on the concentration scale where inhibition reaches its midpoint.

Our source for the IC50 values is patent publication US20260070945A1, “MACROCYCLIC IMMUNOMODULATORS” (Bristol-Myers Squibb Company, priority 2022, published 2026).

Where a SMILES comes first, the peptide text is derived from it. Bridges are numbered along the chain shown (N, C = ends). [ ]: non-standard residue; d: D form. The star is where a group is joined. ξ: configuration not given here. Phe(4-COOH) = N[C@@H](Cc1ccc(C(=O)O)cc1)C(=O)O; Bip = N[C@@H](Cc1ccc(-c2ccccc2)cc1)C(=O)O; Phe(3-Me) = Cc1cccc(C[C@H](N)C(=O)O)c1; hArg = N=C(N)NCCCC[C@H](N)C(=O)O; 4Pal = N[C@@H](Cc1ccncc1)C(=O)O; Cha = N[C@@H](CC1CCCCC1)C(=O)O; Ile(3ξ) = CCC(C)[C@H](N)C(=O)O; Thr(3ξ) = CC(O)[C@H](N)C(=O)O; Chg = N[C@H](C(=O)O)C1CCCCC1; Carboxymethyl = O=C(O)C*; NMeA = CN[C@@H](C)C(=O)O; Orn = NCCC[C@H](N)C(=O)O; Aun = NCCCCCCCCCCC(=O)O; Dab = NCC[C@H](N)C(=O)O; Dap = NC[C@H](N)C(=O)O; AEEA = NCCOCCOCC(=O)O

T1 sequence (Q15116 25-288): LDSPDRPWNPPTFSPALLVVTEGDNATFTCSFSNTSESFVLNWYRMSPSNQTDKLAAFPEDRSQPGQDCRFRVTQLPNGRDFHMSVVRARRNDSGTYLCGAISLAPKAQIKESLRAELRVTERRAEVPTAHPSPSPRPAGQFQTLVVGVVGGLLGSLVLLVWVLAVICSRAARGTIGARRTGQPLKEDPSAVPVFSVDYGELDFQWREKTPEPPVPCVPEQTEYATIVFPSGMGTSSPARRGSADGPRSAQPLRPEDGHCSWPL

The experiment concerns the target T1, PD-1/PD-L1 interaction (PE-labeled human PD-L1-Ig binding to Jurkat cell line over-expressing human PD-1) (Homo sapiens, UniProt Q15116).
T1 construct: expressed in transfected cells; host or cells: Jurkat
The experiment is described as follows: Jurkat-PD-1 Cell Binding High-Content Screening Assay (CBA). The note with it: Jurkat-hPD-1 cells, PE-labeled PD-L1-Ig 20 nM final; read-out: Jurkat HPD1 PDL1 IC50. In short, it runs like this:
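Binding of 20 nM (final) PE-tagged PD-L1-Ig to compound-pretreated Jurkat-hPD-1 cells was measured by high-content imaging after 1 h. Pretreatment ran 2 h at 37 °C in DMEM with 10% fetal calf serum.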
`CCC(C)[C@@H]1NC(=O)[C@H](Cc2ccc(-c3ccccc3)cc2)NC(=O)[C@H](CC(C)C)NC(=O)[C@H](Cc2c[nH]c3ccccc23)NC(=O)[C@H](CC(=O)O)NC(=O)[C@H](Cc2ccc(OCC(=O)O)cc2)NC(=O)[C@H](Cc2ccncc2)NC(=O)CSC[C@@H](C(=O)N[C@@H](CCCN)C(=O)NCCOCCOCC(=O)NCCCCCCCCCCC(=O)O)NC(=O)[C@H](CO)NC(=O)[C@H](C(C)C)NC(=O)[C@H](CC2CCCCC2)NC(=O)[C@H](Cc2c[nH]cn2)NC(=O)[C@@H](CC(C)C)NC(=O)[C@H](C)N(C)C1=O` (stereo partly drawn) [Example 2087] ({CH2CO}-[4Pal]Y(Carboxymethyl)DWL[Bip][Ile(3ξ)][NMeA][dL]H[Cha]VSC[Orn][AEEA][Aun]-OH; thioether N-14): the concentration for half-maximal inhibition (IC50) came out at 50.7 nM.
With `CCC(C)[C@@H]1NC(=O)[C@H](Cc2ccc(-c3ccccc3)cc2)NC(=O)[C@H](CC(C)C)NC(=O)[C@H](Cc2cccc(C)c2)NC(=O)[C@H](CC(=O)O)NC(=O)[C@H](Cc2ccc(OCC(=O)O)cc2)NC(=O)[C@H](Cc2ccncc2)NC(=O)CSC[C@@H](C(=O)N[C@@H](CCCN)C(=O)NCCOCCOCC(=O)NCCCCCCCCCCC(=O)O)NC(=O)[C@H](C(C)O)NC(=O)[C@H](C(C)C)NC(=O)[C@H](CC2CCCCC2)NC(=O)[C@H](CCN)NC(=O)[C@@H](CC(C)C)NC(=O)[C@H](C)N(C)C1=O` (stereo partly drawn) [Example 2088] ({CH2CO}-[4Pal]Y(Carboxymethyl)D[Phe(3-Me)]L[Bip][Ile(3ξ)][NMeA][dL][Dab][Cha]V[Thr(3ξ)]C[Orn][AEEA][Aun]-OH; thioether N-14), the half-inhibitory concentration (IC50) was determined as 12.8 nM.
For the molecule `CC(C)C[C@H]1NC(=O)[C@H](C)N(C)C(=O)[C@H](C(C)C)NC(=O)[C@H](Cc2ccc(-c3ccccc3)cc2)NC(=O)[C@H](C(C)C)NC(=O)[C@H](Cc2c[nH]c3ccccc23)NC(=O)[C@H](CC(=O)O)NC(=O)[C@H](Cc2ccc(OCC(=O)O)cc2)NC(=O)[C@H](CCCCNC(=N)N)NC(=O)CSC[C@@H](C(=O)N[C@@H](CCCCN)C(=O)NCCOCCOCC(=O)NCCCCCCCCCCC(=O)O)NC(=O)[C@H](CO)NC(=O)[C@H](C(C)C)NC(=O)[C@H](CC2CCCCC2)NC(=O)[C@H](CCN)NC1=O` [Example 2089] ({CH2CO}-[hArg]Y(Carboxymethyl)DWV[Bip]V[NMeA][dL][Dab][Cha]VSCK[AEEA][Aun]-OH; thioether N-14), the concentration for half-maximal inhibition (IC50) is 12.3 nM.
Consider `CC(C)C[C@H]1NC(=O)[C@H](C)N(C)C(=O)[C@H](C(C)C)NC(=O)[C@H](Cc2ccc(-c3ccccc3)cc2)NC(=O)[C@H](C2CCCCC2)NC(=O)[C@H](Cc2c[nH]c3ccccc23)NC(=O)[C@H](CC(=O)O)NC(=O)[C@H](Cc2ccc(OCC(=O)O)cc2)NC(=O)[C@H](Cc2ccncc2)NC(=O)CSC[C@@H](C(=O)N[C@@H](CCCCN)C(=O)NCCOCCOCC(=O)NCCCCCCCCCCC(=O)O)NC(=O)[C@H](CO)NC(=O)[C@H](C(C)C)NC(=O)[C@H](CC2CCCCC2)NC(=O)[C@H](CC(=O)O)NC1=O` [Example 2090] ({CH2CO}-[4Pal]Y(Carboxymethyl)DW[Chg][Bip]V[NMeA][dL]D[Cha]VSCK[AEEA][Aun]-OH; thioether N-14), for which the half-maximal inhibitory concentration (IC50) amounted to 48.2 nM.
In the case of `CC(C)C[C@H]1NC(=O)[C@H](C)N(C)C(=O)[C@H](C(C)C)NC(=O)[C@H](Cc2ccc(-c3ccccc3)cc2)NC(=O)[C@H](C2CCCCC2)NC(=O)[C@H](Cc2c[nH]c3ccccc23)NC(=O)[C@H](CC(=O)O)NC(=O)[C@H](Cc2ccncc2)NC(=O)[C@H](Cc2ccc(OCC(=O)O)cc2)NC(=O)CSC[C@@H](C(=O)N[C@@H](CCCCN)C(=O)NCCOCCOCC(=O)NCCCCCCCCCCC(=O)O)NC(=O)[C@H](CO)NC(=O)[C@H](C(C)C)NC(=O)[C@H](CC2CCCCC2)NC(=O)[C@H](CC(=O)O)NC1=O` [Example 2092] ({CH2CO}-Y(Carboxymethyl)[4Pal]DW[Chg][Bip]V[NMeA][dL]D[Cha]VSCK[AEEA][Aun]-OH; thioether N-14), the concentration for half-maximal inhibition (IC50) was 72.8 nM.
Next, `CC(C)C[C@H]1NC(=O)[C@H](C)N(C)C(=O)[C@H](C(C)C)NC(=O)[C@H](Cc2ccc(-c3ccccc3)cc2)NC(=O)[C@H](C2CCCCC2)NC(=O)[C@H](Cc2c[nH]c3ccccc23)NC(=O)[C@H](CC(=O)O)NC(=O)[C@H](CCCCNC(=N)N)NC(=O)[C@H](Cc2ccc(OCC(=O)O)cc2)NC(=O)CSC[C@@H](C(=O)N[C@@H](CCCCN)C(=O)NCCOCCOCC(=O)NCCCCCCCCCCC(=O)O)NC(=O)[C@H](CO)NC(=O)[C@H](C(C)C)NC(=O)[C@H](CC2CCCCC2)NC(=O)[C@H](CC(=O)O)NC1=O` [Example 2093] ({CH2CO}-Y(Carboxymethyl)[hArg]DW[Chg][Bip]V[NMeA][dL]D[Cha]VSCK[AEEA][Aun]-OH; thioether N-14): 21 nM; `CC(C)C[C@@H]1NC(=O)[C@H](Cc2c[nH]c3ccccc23)NC(=O)[C@H](CC(=O)O)NC(=O)[C@H](Cc2ccc(C(=O)O)cc2)NC(=O)[C@H](Cc2ccc(OCC(=O)O)cc2)NC(=O)CSC[C@@H](C(=O)N[C@@H](CCN)C(=O)NCCOCCOCC(=O)NCCCCCCCCCCC(=O)O)NC(=O)[C@H](CO)NC(=O)[C@H](C(C)C)NC(=O)[C@H](CC2CCCCC2)NC(=O)[C@H](CCN)NC(=O)[C@@H](CC(C)C)NC(=O)[C@H](C)N(C)C(=O)[C@H](C(C)C)NC(=O)[C@H](Cc2ccc(-c3ccccc3)cc2)NC1=O` [Example 2094] ({CH2CO}-Y(Carboxymethyl)[Phe(4-COOH)]DWL[Bip]V[NMeA][dL][Dab][Cha]VSC[Dab][AEEA][Aun]-OH; thioether N-14): 9.6 nM.
The figure for `CC(C)C[C@@H]1NC(=O)[C@H](Cc2c[nH]c3ccccc23)NC(=O)[C@H](CC(=O)O)NC(=O)[C@H](Cc2ccc(C(=O)O)cc2)NC(=O)[C@H](Cc2ccc(OCC(=O)O)cc2)NC(=O)CSC[C@@H](C(=O)N[C@@H](CCCN)C(=O)NCCOCCOCC(=O)NCCCCCCCCCCC(=O)O)NC(=O)[C@H](CO)NC(=O)[C@H](C(C)C)NC(=O)[C@H](CC2CCCCC2)NC(=O)[C@H](CCN)NC(=O)[C@@H](CC(C)C)NC(=O)[C@H](C)N(C)C(=O)[C@H](C(C)C)NC(=O)[C@H](Cc2ccc(-c3ccccc3)cc2)NC1=O` [Example 2095] ({CH2CO}-Y(Carboxymethyl)[Phe(4-COOH)]DWL[Bip]V[NMeA][dL][Dab][Cha]VSC[Orn][AEEA][Aun]-OH; thioether N-14) is 9.5 nM; for `CC(C)C[C@@H]1NC(=O)[C@H](Cc2c[nH]c3ccccc23)NC(=O)[C@H](CC(=O)O)NC(=O)[C@H](Cc2ccc(C(=O)O)cc2)NC(=O)[C@H](Cc2ccc(OCC(=O)O)cc2)NC(=O)CSC[C@@H](C(=O)N[C@@H](CCCCN)C(=O)NCCOCCOCC(=O)NCCCCCCCCCCC(=O)O)NC(=O)[C@H](CO)NC(=O)[C@H](C(C)C)NC(=O)[C@H](CC2CCCCC2)NC(=O)[C@H](CCN)NC(=O)[C@@H](CC(C)C)NC(=O)[C@H](C)N(C)C(=O)[C@H](C(C)C)NC(=O)[C@H](Cc2ccc(-c3ccccc3)cc2)NC1=O` [Example 2096] ({CH2CO}-Y(Carboxymethyl)[Phe(4-COOH)]DWL[Bip]V[NMeA][dL][Dab][Cha]VSCK[AEEA][Aun]-OH; thioether N-14) it is 11.8 nM; for `CC(C)C[C@@H]1NC(=O)[C@H](Cc2c[nH]c3ccccc23)NC(=O)[C@H](CC(=O)O)NC(=O)[C@H](Cc2ccccc2)NC(=O)[C@H](Cc2ccc(O)cc2)NC(=O)CSC[C@@H](C(=O)N[C@@H](CCCCN)C(=O)NCCOCCOCC(=O)NCCCCCCCCCCC(=O)O)NC(=O)[C@H](CO)NC(=O)[C@H](C(C)C)NC(=O)[C@H](CC2CCCCC2)NC(=O)[C@H](CCN)NC(=O)[C@@H](CC(C)C)NC(=O)[C@H](C)N(C)C(=O)[C@H](C(C)C)NC(=O)[C@H](Cc2ccc(-c3ccccc3)cc2)NC1=O` [Example 2097] ({CH2CO}-YFDWL[Bip]V[NMeA][dL][Dab][Cha]VSCK[AEEA][Aun]-OH; thioether N-14) it is 94.8 nM.
Consider `CC(C)C[C@@H]1NC(=O)[C@H](Cc2c[nH]c3ccccc23)NC(=O)[C@H](CC(=O)O)NC(=O)[C@H](Cc2ccccc2)NC(=O)[C@H](Cc2ccc(OCC(=O)O)cc2)NC(=O)CSC[C@@H](C(=O)N[C@@H](CCCCN)C(=O)NCCOCCOCC(=O)NCCCCCCCCCCC(=O)O)NC(=O)[C@H](CO)NC(=O)[C@H](C(C)C)NC(=O)[C@H](CC2CCCCC2)NC(=O)[C@H](CCN)NC(=O)[C@@H](CC(C)C)NC(=O)[C@H](C)N(C)C(=O)[C@H](C(C)C)NC(=O)[C@H](Cc2ccc(-c3ccccc3)cc2)NC1=O` [Example 2098] ({CH2CO}-Y(Carboxymethyl)FDWL[Bip]V[NMeA][dL][Dab][Cha]VSCK[AEEA][Aun]-OH; thioether N-14), for which the half-maximal inhibitory concentration (IC50) turned out to be 24 nM.
For the molecule `CC(C)C[C@H]1NC(=O)[C@H](C)N(C)C(=O)[C@H](C(C)C)NC(=O)[C@H](Cc2ccc(-c3ccccc3)cc2)NC(=O)[C@H](C(C)C)NC(=O)[C@H](Cc2c[nH]c3ccccc23)NC(=O)[C@H](CC(=O)O)NC(=O)[C@H](Cc2ccc(OCC(=O)O)cc2)NC(=O)[C@H](CN)NC(=O)CSC[C@@H](C(=O)NCCOCCOCC(=O)N[C@@H](CN)C(=O)NCCCCCCCCCCC(=O)O)NC(=O)[C@H](C(C)O)NC(=O)[C@H](C(C)C)NC(=O)[C@H](CC2CCCCC2)NC(=O)[C@H](CCN)NC1=O` (stereo partly drawn) [Example 2099] ({CH2CO}-[Dap]Y(Carboxymethyl)DWV[Bip]V[NMeA][dL][Dab][Cha]V[Thr(3ξ)]C[AEEA][Dap][Aun]-OH; thioether N-14), the IC50 was determined as 17 nM.
Take `CC(C)C[C@H]1NC(=O)[C@H](C)N(C)C(=O)[C@H](C(C)C)NC(=O)[C@H](Cc2ccc(-c3ccccc3)cc2)NC(=O)[C@H](C(C)C)NC(=O)[C@H](Cc2c[nH]c3ccccc23)NC(=O)[C@H](CC(=O)O)NC(=O)[C@H](Cc2ccc(OCC(=O)O)cc2)NC(=O)[C@H](Cc2ccncc2)NC(=O)CSC[C@@H](C(=O)N[C@@H](CCCCN)C(=O)NCCOCCOCC(=O)NCCCCCCCCCCC(=O)O)NC(=O)[C@H](CO)NC(=O)[C@H](C(C)C)NC(=O)[C@H](CC2CCCCC2)NC(=O)[C@H](CCN)NC1=O` [Example 2100] ({CH2CO}-[4Pal]Y(Carboxymethyl)DWV[Bip]V[NMeA][dL][Dab][Cha]VSCK[AEEA][Aun]-OH; thioether N-14): the half-maximal inhibitory concentration (IC50) was 21.7 nM.
